Data on one molecule can be found in patent publication EP0662819B1, “AN ANTIVIRALLY ACTIVE PHARMACEUTICAL OIL-IN-WATER EMULSION CONTAINING 9-[(2-HYDROXYETHOXY)METHYL]GUANINE (ACYCLOVIR) OR A SALT OR ESTER THEREOF” (A/S GEA Farmaceutisk Fabrik, priority 1992, dated 1994).

The structures appear in SMILES notation. Values after ≈ are worked out from the molar mass of the structure shown.

This data set is described as follows: Solubility of acyclovir in glycerol formal/water and glycerol formal/propylene glycol/water mixtures. The data set is classed as physicochemical. The note with it: room temperature. As for the experimental part:
A surplus of acyclovir is added to glycerol formal/water mixtures and glycerol formal/propylene glycol/water mixtures at room temperature, and the mixtures are then stirred for 2 hours and filtered. Subsequent to adequate dilution with 0.1 N NaOH the solutions are spectrophotometrically measured at 260 nm against 0.1 N NaOH. A 0.01% solution of acyclovir in 0.1 N NaOH is used as standard.

The term solubility denotes the concentration that dissolves in the medium under given conditions. Take `Nc1nc2c(ncn2COCCO)c(=O)[nH]1` [acyclovir, 9-[(2-hydroxyethoxy)methyl]guanine]: the solubility at 2 h by setting is: (0 percent by volume glycerol formal in water, stirred 2 hours) 1170 µg/mL (≈ 5.2 mM); (10% glycerol formal in water, organic solvent or mixture, 10 percent by volume glycerol formal in water, stirred 2 hours) 1630 µg/mL (≈ 7.24 mM); (25% glycerol formal in water, organic solvent or mixture, 25 percent by volume glycerol formal in water, stirred 2 hours) 2640 µg/mL (≈ 11.7 mM); (50% glycerol formal in water, organic solvent or mixture, 50 percent by volume glycerol formal in water, stirred 2 hours) 4370 µg/mL (≈ 19.4 mM); (60% glycerol formal in water, organic solvent or mixture, 60 percent by volume glycerol formal in water, stirred 2 hours) 4670 µg/mL (≈ 20.7 mM); (75% glycerol formal in water, organic solvent or mixture, 75 percent by volume glycerol formal in water, stirred 2 hours) 4150 µg/mL (≈ 18.4 mM). The solubility at 2 h is, setting by setting: (90% glycerol formal in water, organic solvent or mixture, 90 percent by volume glycerol formal in water, stirred 2 hours) 2970 µg/mL (≈ 13.2 mM); (glycerol formal/water 40/20, organic solvent or mixture, Glycerol formal/propylene glycol/water 40/0/20 g/g/ml) 5730 µg/mL (≈ 25.4 mM); (organic solvent or mixture, 100 percent by volume glycerol formal, stirred 2 hours) 3270 µg/mL (≈ 14.5 mM); (organic solvent or mixture, Glycerol formal/propylene glycol/water 11/29/20 g/g/ml) 4710 µg/mL (≈ 20.9 mM); (organic solvent or mixture, Glycerol formal/propylene glycol/water 20/20/20 g/g/ml) 4600 µg/mL (≈ 20.4 mM); (organic solvent or mixture, Glycerol formal/propylene glycol/water 30/10/20 g/g/ml) 5200 µg/mL (≈ 23.1 mM). Besides, where the note is “propylene glycol/water 40/20, organic solvent or mixture, Glycerol formal/propylene glycol/water 0/40/20 g/g/ml”, the solubility at 2 h was determined as 3440 µg/mL (≈ 15.3 mM).
